# US6673798B2, “PDGF receptor kinase inhibitory compounds, their preparation, purification and pharmaceutical compositions including same” (Yissum Research Development Company of the Hebrew …, priority 1999, dated 2004)
# Read-outs that look alike come from different tables or passages of the source.
# Assays:
# KDR = target: T1, KDR (Homo sapiens, UniProt P35968); assay: KDR receptor phosphorylation in intact PAEC cells; format: cell-based; details: intact PAEC cells expressing KDR, VEGF stimulated; read-out: IC50 (50% inhibition of phosphorylation) KDR
# T1 construct: expressed in transfected cells; host or cells: porcine aortic endothelial cells (PAEC), stably transfected
# T1 sequence (P35968 20-1356): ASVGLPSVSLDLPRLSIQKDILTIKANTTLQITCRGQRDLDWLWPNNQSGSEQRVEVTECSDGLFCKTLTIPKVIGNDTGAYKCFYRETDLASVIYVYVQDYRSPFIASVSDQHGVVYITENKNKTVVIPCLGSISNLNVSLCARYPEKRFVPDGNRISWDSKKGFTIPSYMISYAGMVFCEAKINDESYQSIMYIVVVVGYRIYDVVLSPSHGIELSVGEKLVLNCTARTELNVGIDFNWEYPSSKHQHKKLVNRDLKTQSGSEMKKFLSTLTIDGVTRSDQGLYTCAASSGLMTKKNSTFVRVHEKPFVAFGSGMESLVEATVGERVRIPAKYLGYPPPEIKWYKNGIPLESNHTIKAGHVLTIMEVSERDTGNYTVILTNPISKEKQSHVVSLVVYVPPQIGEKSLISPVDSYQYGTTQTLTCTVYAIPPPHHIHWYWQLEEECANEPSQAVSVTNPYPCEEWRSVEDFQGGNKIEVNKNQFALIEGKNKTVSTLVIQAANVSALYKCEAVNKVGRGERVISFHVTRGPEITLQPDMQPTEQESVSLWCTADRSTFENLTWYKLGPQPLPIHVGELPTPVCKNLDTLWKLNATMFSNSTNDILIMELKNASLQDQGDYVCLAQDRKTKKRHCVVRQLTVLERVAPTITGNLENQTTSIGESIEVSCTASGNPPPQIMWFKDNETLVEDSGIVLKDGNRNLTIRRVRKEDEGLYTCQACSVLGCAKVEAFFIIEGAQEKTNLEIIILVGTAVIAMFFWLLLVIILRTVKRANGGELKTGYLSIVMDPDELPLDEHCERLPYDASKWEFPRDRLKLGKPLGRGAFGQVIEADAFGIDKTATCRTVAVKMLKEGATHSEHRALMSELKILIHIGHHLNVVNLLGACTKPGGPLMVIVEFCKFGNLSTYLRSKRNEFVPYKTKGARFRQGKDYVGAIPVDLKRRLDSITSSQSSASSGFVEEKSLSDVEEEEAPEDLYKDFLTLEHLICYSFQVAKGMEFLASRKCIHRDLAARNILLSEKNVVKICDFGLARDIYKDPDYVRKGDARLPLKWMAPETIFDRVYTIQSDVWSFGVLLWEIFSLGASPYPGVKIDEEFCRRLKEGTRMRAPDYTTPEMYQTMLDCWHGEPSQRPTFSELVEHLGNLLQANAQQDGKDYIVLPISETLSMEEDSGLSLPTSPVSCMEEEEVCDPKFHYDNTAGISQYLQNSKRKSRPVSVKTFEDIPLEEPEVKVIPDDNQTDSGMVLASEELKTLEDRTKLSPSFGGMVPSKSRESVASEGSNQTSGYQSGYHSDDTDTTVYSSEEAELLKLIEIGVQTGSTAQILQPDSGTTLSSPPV
# Protocol: (§1) Effect of tyrphostins on PDGF-induced PDGFR autophosphorylation in intact PAEC cells: PAEC cells, transfected with either PDGFR or KDR, cultivated in Ham's F-12 medium supplemented with 10% fetal calf serum (FCS), were synchronized for 20 hours in a medium containing 0.01% BSA. […] After stimulation, the cells were solubilized in Nonidet P-40 (1%) containing lysis buffer.
# The analysis of KDR receptor phosphorylation was performed as follows. Cell lysates were subjected to immunoprecipitation using the KDR specific antiserum. The precipitates were subjected to polyacrylamide (7.5%) gel electrophoresis in presence of sodium dodecyl sulfate (SDS-PAGE) and were thereafter blotted onto a nitrocellulose membrane (Hybond C-EXTRA, Amersham). Phosphorylated proteins were detected by immunoblotting using the horseradish-peroxidase conjugated phosphotyrosine antibody RC20H (Transduction Laboratories), followed by chemoluminescence-based detection (ECL, Amersham) and autoradiography.
# PDGF β-receptor = PDGF β-receptor (Homo sapiens, UniProt P09619); assay: PDGF-induced PDGFR autophosphorylation in intact PAEC cells; format: cell-based; parameters: expressed in transfected cells; host or cells: porcine aortic endothelial cells (PAEC), stably transfected; details: intact PAEC cells expressing PDGFR, PDGF-BB stimulated; read-out: IC50 (50% inhibition of phosphorylation) PDGFR
# Chain of PDGF β-receptor (P09619 33-1106): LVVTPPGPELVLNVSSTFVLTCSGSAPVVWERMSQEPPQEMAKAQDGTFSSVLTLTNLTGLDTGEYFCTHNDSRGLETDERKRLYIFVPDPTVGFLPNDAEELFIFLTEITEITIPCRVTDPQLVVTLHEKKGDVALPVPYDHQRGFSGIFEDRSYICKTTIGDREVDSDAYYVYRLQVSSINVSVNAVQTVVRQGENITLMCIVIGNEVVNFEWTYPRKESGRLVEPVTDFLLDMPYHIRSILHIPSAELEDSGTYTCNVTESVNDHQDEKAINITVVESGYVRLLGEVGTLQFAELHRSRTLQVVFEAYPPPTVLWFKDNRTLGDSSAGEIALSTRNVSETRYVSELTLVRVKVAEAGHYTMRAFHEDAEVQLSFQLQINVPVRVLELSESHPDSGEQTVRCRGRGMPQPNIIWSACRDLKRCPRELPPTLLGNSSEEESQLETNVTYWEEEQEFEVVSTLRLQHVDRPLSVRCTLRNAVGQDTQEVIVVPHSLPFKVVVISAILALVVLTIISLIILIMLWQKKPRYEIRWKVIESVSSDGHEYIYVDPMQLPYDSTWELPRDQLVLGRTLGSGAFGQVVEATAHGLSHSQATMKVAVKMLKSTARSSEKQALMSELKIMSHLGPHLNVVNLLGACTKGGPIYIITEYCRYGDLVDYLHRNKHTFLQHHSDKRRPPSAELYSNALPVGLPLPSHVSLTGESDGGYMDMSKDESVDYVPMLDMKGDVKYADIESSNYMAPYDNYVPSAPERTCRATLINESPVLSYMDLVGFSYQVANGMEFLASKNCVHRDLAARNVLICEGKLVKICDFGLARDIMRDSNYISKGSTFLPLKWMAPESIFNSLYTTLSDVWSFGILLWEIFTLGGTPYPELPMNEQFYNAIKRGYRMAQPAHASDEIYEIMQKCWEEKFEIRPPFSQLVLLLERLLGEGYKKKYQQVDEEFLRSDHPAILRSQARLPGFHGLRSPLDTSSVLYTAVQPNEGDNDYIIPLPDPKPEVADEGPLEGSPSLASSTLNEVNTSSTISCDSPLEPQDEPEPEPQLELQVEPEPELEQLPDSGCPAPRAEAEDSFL
# Protocol: as §1
# The analysis of PDGF β-receptor phosphorylation was performed as follows. Cell lysates were subjected to immunoprecipitation using the PDGF β-receptor specific antiserum R3 [5]. The precipitates were subjected to polyacrylamide (7.5%) gel electrophoresis in presence of sodium dodecyl sulfate (SDS-PAGE) and were thereafter blotted onto a nitrocellulose membrane (Hybond C-EXTRA, Amersham). Phosphorylated proteins were detected by immunoblotting using the horseradish-peroxidase conjugated phosphotyrosine antibodies PY20 and 4G10 (Upstate Biotechnology), followed by application of secondary horseradish-peroxidase conjugated goat-anti-mouse antibody and chemoluminescence-based detection (ECL, Amersham) and autoradiography.
# The data in Table 9 presents the differential potencies of the various compounds with respect to PDGFR and KDR, as was performed on intact PAEC cells expressing these receptors (see experimental methods section above).
# [1] = system: human coronary artery SMC (HCASMC); assay: HCASMC migration (Boyden chamber); format: cell-based
# Protocol: Human coronary artery endothelial cells (HCAEC) and human coronary artery smooth muscle cells (HCASMC) were purchased from Clonetics (Heidelberg), and grown in EBM medium (supplemented with EGM-MV SINGLE QUOTS®) or in SmBM medium (supplemented with SmGM-2 SINGLE QUOTS®), respectively (Clonetics).
# Assessment of cell migration (Chemotaxis assay): The chemotactic response of HCASMC, PAEC/KDR and PAEC/PDGFR cells was assessed using the modified Boyden chamber (Neuro Probe, Inc.) and collagen-coated polycarbonate filters (Nucleopore) with pore diameters of 8 μm as previously described. Briefly, PAEC/KDR and PAEC/PDGFR cells were cultivated and assayed in Ham's F12 medium containing 10% FCS. HCASMC were cultivated in SmGM-2 (clonetics) and assayed in SmBM-WM containing 10% FCS and 0.1% BSA. To the medium in the lower part of the Boyden chamber, either VEGF or PDGF-BB (10 ng/ml, respectively) were added. AG2033 was added to both upper and lower chamber parts. Suspended cells were given 4 hours for migration, after a preincubation period of 15 minute in AG2033. The number of cells that migrated without PDGF-BB or VEGF stimulation was referred to as 100% migration (chemokinesis). The assay was performed in triplicate, and five medium-power fields were counted per well using a light microscope (Jenalab).
# Further evaluation of HCASMC cells migration toward PDGD-BB, in the presence of purified “transoid” isomers, was conducted in a Boyden chamber (see experimental section, above).
# PDGFβR = target: T2, PDGFβR (Mus musculus, UniProt P05622); assay: PDGFR autophosphorylation, purified receptor from Swiss 3T3 cell membranes (cell free); format: biochemical; details: for % of Control (percent autokinase activity): isolated PDGFβR; for IC50: isolated PDGFR from Swiss 3T3 cell membranes, read-out: IC50 (50% inhibition of phosphorylation)
# T2 construct: A preparation of purified PDGFR from Swiss 3T3 cell membranes was used; endogenous in cells
# T2 sequence (P05622 32-1098): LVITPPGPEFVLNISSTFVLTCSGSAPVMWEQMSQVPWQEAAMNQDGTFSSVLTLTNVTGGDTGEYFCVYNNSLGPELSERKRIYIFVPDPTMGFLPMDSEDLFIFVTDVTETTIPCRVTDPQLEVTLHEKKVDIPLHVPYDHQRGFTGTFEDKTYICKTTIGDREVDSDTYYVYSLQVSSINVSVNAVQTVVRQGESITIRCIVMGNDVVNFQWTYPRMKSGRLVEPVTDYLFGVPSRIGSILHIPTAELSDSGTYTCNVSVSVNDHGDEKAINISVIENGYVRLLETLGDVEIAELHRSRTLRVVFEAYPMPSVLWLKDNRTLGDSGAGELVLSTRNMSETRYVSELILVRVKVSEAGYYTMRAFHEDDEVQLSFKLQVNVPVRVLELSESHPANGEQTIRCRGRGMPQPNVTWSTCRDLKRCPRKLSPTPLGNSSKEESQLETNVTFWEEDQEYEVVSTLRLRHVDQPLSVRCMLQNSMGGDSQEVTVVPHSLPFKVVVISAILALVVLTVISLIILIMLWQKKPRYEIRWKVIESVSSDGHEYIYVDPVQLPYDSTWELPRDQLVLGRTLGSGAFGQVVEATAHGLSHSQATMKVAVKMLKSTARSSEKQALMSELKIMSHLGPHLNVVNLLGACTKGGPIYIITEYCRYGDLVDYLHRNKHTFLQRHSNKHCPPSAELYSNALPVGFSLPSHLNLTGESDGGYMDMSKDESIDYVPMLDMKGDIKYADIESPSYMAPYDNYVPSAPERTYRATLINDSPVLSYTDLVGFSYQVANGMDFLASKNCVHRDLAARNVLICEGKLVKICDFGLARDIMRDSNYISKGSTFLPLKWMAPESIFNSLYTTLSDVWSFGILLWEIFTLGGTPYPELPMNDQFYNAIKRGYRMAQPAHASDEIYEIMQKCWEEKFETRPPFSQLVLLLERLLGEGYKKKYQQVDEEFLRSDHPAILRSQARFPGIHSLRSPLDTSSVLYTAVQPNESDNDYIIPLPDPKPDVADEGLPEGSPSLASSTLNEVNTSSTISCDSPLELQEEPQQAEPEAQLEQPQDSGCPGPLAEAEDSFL
# Protocol: In vitro effect of tyrphostins on purified PDGFR autophosphroylation: Membranes were prepared from confluent cultures of canine kidney epithelial cells (TRMP) or Swiss 3T3 cells as described. Further purification of the PDGF-βR was performed as described in [23]. Briefly, 2 μl kinase preparation were incubated for 20 minutes on ice in the presence of 2 μg/ml PDGF-BB in 20 μl of 50 mM Hepes (pH 7.4). Kinase reaction was executed for 10 minute on ice with 5 mM MnCl2, 1 mM vanadate, 10 μM [γ-^32P]ATP (2.5 μCi per reaction). The reaction was terminated by addition of 10 μl of a solution containing 6% SDS, 30% β-mercaptoethanol, 40% glycerol, and 0.5 mg/ml bromophenol blue. The samples were heated for 5 minutes at 95° C. and subjected to polyacrylamide gel electrophoresis in the presence of 0.4% SDS, using 7.5% polyacrylamide gels. The gels were stained, dried and subjected to autoradiographic analysis. For quantification of radioactivity in electrophoresis gels, a Phospho-Imager (Molecular Dynamics, Fuji, or Bio-Rad) was used according to the instructions of the manufacturer. To obtain autoradiograms, objects were exposed to X-ray film (Fuji RX or Kodak X-OMAT) with intensifying screens at −70° C.
# Inhibition of PDGF-induced tyrosine phosphorylation by tyrphostins in vitro: A preparation of purified PDGFR from Swiss 3T3 cell membranes was used to assess and compare the inhibitory effects of tyrphostin compounds on tyrosine kinase activity. Various concentrations of the purified “transoid” isomers AG2033 and AG2043, were evaluated. Table 8 below presents IC50 values (50% inhibition of phosphorylation, μM) of AG2033 and AG2043. Data presents the potencies of the compounds with respect to PDGFR, as was determined using the isolated receptor (see experimental methods section above).
# Kinase reactions, using an isolated PDGFβR preparation, in the presence of 0.03-3 μM tyrphostin, were conducted, utilizing [γ-^32P]ATP as probe. Densitometric evaluation, relative to control lacking the tyrphostin inhibitor (100%), results in the percent autokinase activity, presented in Table 8 and in the dose-response curves for the purified transoid isomers AG2033 (FIG. 6) and AG2043 (FIG. 7). Further comparison between the resulting autoradiogrms for each pair of geometrical isomers AG2033 and AG2034 (upper panel); AG2043 and AG2044 (lower panel), for their inhibitory activity towards PDGF-induced PDGFβR autophosphorylation (concentration range: 0.1-10 μM) in intact cells is presented in FIG. 8. […] Similar potency relation exists between the AG2043 and AG2044 isomers.
# [2] = absence of PDGF-BB, read-out: IC50 of basal migratory activity of HCASMC
# [3] = presence of PDGF-BB, read-out: IC50 of induced migratory activity of HCASMC
# [4] = 0.03 μM tyrphostin, [γ-32P]ATP, densitometry
SMILES,IC50 (KDR) [nM],IC50 (PDGF β-receptor) [nM],"IC50 [1, 2] [nM]","IC50 [1, 3] [nM]",% of Control (percent autokinase activity) (PDGFβR; [4]),% of Control (percent autokinase activity) (PDGFβR; 0.1 μM tyrphostin),% of Control (percent autokinase activity) (PDGFβR; 0.3 μM tyrphostin),% of Control (percent autokinase activity) (PDGFβR; 1 μM tyrphostin),% of Control (percent autokinase activity) (PDGFβR; 3 μM tyrphostin),IC50 (PDGFβR) [nM]
"Cc1nc2cc3nc(-c4ccccc4)cnc3cc2n1C [AG2033, 1,2-dimethyl-6-phenyl imidazolo[5,4-g]quinoxaline]",> 10000,500,< 10000,< 3000,97.9 % of Control,37 % of Control,17.9 % of Control,13.7 % of Control,9.8 % of Control,70
"Cc1nc2cc3nc(-c4cccs4)cnc3cc2n1C [AG2043, 1,2-dimethyl-6-(2-thiophene) imidazolo[5,4-g]quinoxaline]",3000,1000,< 10000,~3000,60.1 % of Control,41.6 % of Control,40.4 % of Control,15.1 % of Control,11 % of Control,90
